Patent US7960397B2, “6,9-disubstituted purine derivatives and their use as cosmetics and cosmetic compositions” (Institute of Experimental Botany, Academy of Sciences of …, priority 2007, dated 2011)

Key:
[1] = test system: breast carcinoma cell line MCF-7; experiment: In vitro cytotoxicity, Calcein AM assay; conditions: Homo sapiens, MCF7, 72 h, read-out: GI50 MCF7
Description: (§1) Because only metabolically active cells cleave Calcein AM, these assays detect viable cells exclusively. The quantity of reduced Calcein AM corresponds to the number of vital cells in the culture.
(§2) The cells were maintained in Nunc/Corning 80 cm^2 plastic tissue culture flasks and cultured in cell culture medium (DMEM with 5 g/l glucose, 2 mM glutamine, 100 U/ml penicillin, 100 mg/ml streptomycin, 10% fetal calf serum and sodium bicarbonate).
(§3) The cell suspensions that were prepared and diluted according to the particular cell type and the expected target cell density (2,500-30,000 cells per well based on cell growth characteristics) were added by pipette (80 ml) into 96-well microtiter plates. Inoculates were allowed a pre-incubation period of 24 hours at 37° C. and 5% CO2 for stabilization. Four-fold dilutions of the intended test concentration were added at time zero in 20 ml aliquots to the microtiter plate wells. Usually, the compound tested was evaluated at six 4-fold dilutions. […] All drug concentrations were examined in duplicate. Incubations of cells with the tested compounds lasted for 72 hours at 37° C., in a 5% CO2 atmosphere and 100% humidity. At the end of the incubation period, the cells were assayed by using Calcein AM. Ten microliters of the stock solution were pipetted into each well and incubated for 1 hour. Fluorescence (FD) was measured with the Labsystem FIA Reader Fluoroscan Ascent (UK).

β-adrenergic receptors = experiment: Isoproterenol-induced cAMP synthesis in rat C6 glioma; format: cell-based; conditions: cellular cAMP, simultaneous addition with isoproterenol, 30 min
Description: Anti-inflammatory activity. The compounds of formula 1 having anti-inflammatory activities can be used as cosmetics for treating inflammation skin disorders as atopic dermatitis, lichen planus, hyperpigmentation and Herpes simplex lesions. From this reason, rat C6 glioma (ATCC No. CCL107) was cultivated as a monolayer in a serum-free chemically defined medium containing Ham's F10-minimal essential medium (1:1 v/v), 2 mM L-glutamine, 1% (v/v) minimal essential medium vitamins (100×), 1% (v/v) minimal essential medium nonessential amino acids (100×), 100U/ml penicillin, […] streptomycin and 30 nM sodium selenite. Incubation was performed at 37° C. in a humidified atmosphere. The assays were performed in the logarithmic growth phase at a density of 2.5×10^5 cells/cm^2. Intracellular cAMP synthesis was induced by addition of […] (−)isoproterenol. After 30 min incubation at 37° C. the medium was removed and the cellular amount of cAMP was determined using the cAMP-enzyme immunoassay Amersham kit. The I50 value was determined from a dose-response curve in duplicate. The effect of the novel 6,9-disubstituted purines was measured after simultaneous addition with isoproterenol.
As P2Y1-like and A2 purinergic receptors, negatively and positively coupled to adenylate cyclase, respectively, are present in rat C6 glioma, it remains to be determined whether the modulation of the synthesis of cAMP is due to the inhibition of the activation of β-adrenergic receptors by isoproterenol, or due to the activation of purinergic receptors.

[2] = test system: Human T-lymphoblastic leukemia cell line CEM; experiment: In vitro cytotoxicity, Calcein AM assay; conditions: Homo sapiens, 72 h, read-out: GI50 CEM
Description: as §1, §2, §3

[3] = test system: promyelocytic HL-60 leukemia; experiment: In vitro cytotoxicity, Calcein AM assay; conditions: Homo sapiens, HL-60, 72 h, read-out: GI50 HL60
Description: as §1, §2, §3

excised wheat leaf tips = experiment: Antisenescence test, retention of chlorophyll in excised wheat leaf tips; design: species or system Triticum aestivum cv. Hereward
Method in brief: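 Winter wheat seedlings (Triticum aestivum cv. Hereward) were raised on vermiculite with Knop's solution at 25° C. for 7 days. Tips of the first leaf, 35 mm long (five tips, 100 mg combined), stood in […] of test solution in microtiter wells. After 96 h in the dark at 25° C., chlorophyll was extracted in 80% ethanol at 80° C. and read at 665 nm. Activity is relative to 10^−4 M BAP (100%).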

human osteosarcoma HOS = experiment: In vitro cytotoxicity, Calcein AM assay; conditions: Homo sapiens, 72 h, read-out: GI50 HOS
Description: as §1, §2, §3

[4] = test system: human diploid fibroblasts (HCA cells, HCA20, HCA40, HCA60); experiment: Senescent cells (β-galactosidase staining) in culture of human fibroblasts; format: cell-based
Method in brief: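 Fibroblasts taken at passages 20, 40 and 60 were washed and fixed for 5 min at room temperature in 2% formaldehyde/0.2% glutaraldehyde in PBS. After PBS washes, cells were incubated at 37 °C for β-galactosidase staining.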

[5] = test system: Amaranthus caudatus cotyledon/hypocotyl explants; experiment: Amaranthus bioassay (betacyanin content); design: species or system Amaranthus caudatus var. atropurpurea
Method in brief: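 Amaranthus caudatus explants (cotyledons plus hypocotyl) from 72 h dark-grown seedlings were incubated in darkness on medium with 10 mmol Na2HPO4–KH2PO4 pH 6.8, 5 mmol tyrosine and test compound; stock was 10^−3 M in DMSO/water. Betacyanin was measured as A537−A620 and activity expressed relative to 10^−5 M BAP (100%).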

mouse fibroblasts NIH3T3 = experiment: In vitro cytotoxicity, Calcein AM assay; conditions: Mus musculus, NIH3T3, 72 h, read-out: GI50 NIH-3T3
Description: as §1, §2, §3

[6] = test system: cytokinin-dependent tobacco callus Nicotiana tabacum L. cv. Wisconsin 38; experiment: Cytokinin activity in tobacco callus bioassay; format: cell-based

Oc1ccc(CNc2ncnc3c2ncn3C2CCCCO2)cc1 (stereo not drawn) [6-(4-hydroxybenzylamino)-9-(tetrahydropyran-2-yl)purine]
GI50 [1]: > 167 µM
Effect (modulation of the activity of β-adrenergic receptors) (β-adrenergic receptors): 1.8-fold fold activation
GI50 [2]: > 167 µM
GI50 [3]: > 167 µM
activity (%) [10^−4 mol · l^−1 BAP = 100%] (excised wheat leaf tips; retention of chlorophyll in excised wheat leaf tips at the concentration with highest activity, 10 replicate determinations): 10.1%
concentration with highest activity (excised wheat leaf tips; retention of chlorophyll in excised wheat leaf tips, tested range 10^−8 M to 10^−4 M, 96 h in the dark at 25° C.): 10^−4 mol · l^−1
GI50 (human osteosarcoma HOS): > 167 µM
SENESCENT CELLS (%) HCA20 ([4]; human fibroblasts passage 20 (HCA20)): 5%
SENESCENT CELLS (%) HCA40 ([4]; human fibroblasts passage 40 (HCA40)): 5%
SENESCENT CELLS (%) HCA60 ([4]; human fibroblasts passage 60 (HCA60)): 16%
concentration with highest activity ([5]; betacyanin content after 48 h incubation, tested 10^−8 M to 10^−4 M): 10^−4 mol · l^−1
Activity (%) [10^−5 mol · l^−1 BAP = 100%] ([5]; betacyanin content at the concentration with highest activity, 10^−5 M BAP = 100%): 25.3%
GI50 (mouse fibroblasts NIH3T3): > 167 µM
concentration with highest activity ([6]; growth of tobacco callus, four weeks of cultivation, tested 10^−8 M to 10^−4 M): 10^−5 mol · l^−1
Activity (%) [10^−5 mol · l^−1 BAP = 100%] ([6]; increase of fresh callus weight at the concentration with highest activity, 10^−5 M BAP = 100%): 36%
